Legend:
Test in all cases: Test D controlled growth environment herbicide test, pre- and postemergence
Assay type in all cases: in vivo
[1] = test system: Russian thistle (Salsola kali)
Procedure, shortened: (§1)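 Rating is visual, 0–100 scale (100 = complete control), made against untreated plants 14–21 d after treatment in controlled growth conditions. Postemergence sprays went onto 1- to 4-leaf plants in peat medium; preemergence sprays onto silt loam after sowing; formulation included a surfactant.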

[2] = test system: blackgrass (Alopecurus myosuroides)
Procedure, shortened: as §1

[3] = test system: canarygrass (Phalaris minor)
Procedure, shortened: as §1

[4] = test system: chickweed (common chickweed, Stellaria media)
Procedure, shortened: as §1

[5] = test system: deadnettle (henbit deadnettle, Lamium amplexicaule)
Procedure, shortened: as §1

[6] = test system: field violet (Viola arvensis)
Procedure, shortened: as §1

[7] = test system: foxtail, green (green foxtail, Setaria viridis)
Procedure, shortened: as §1

kochia (Kochia scoparia) = test system: kochia (Kochia scoparia)
Procedure, shortened: as §1

[8] = test system: lambsquarters (Chenopodium album)
Procedure, shortened: as §1

[9] = test system: ryegrass, Italian (Italian ryegrass, Lolium multiflorum)
Procedure, shortened: as §1

[10] = test system: wheat, spring (spring wheat, Triticum aestivum)
Procedure, shortened: as §1

[11] = test system: wheat, winter (winter wheat, Triticum aestivum)
Procedure, shortened: as §1

[12] = test system: windgrass (Apera spica-venti)
Procedure, shortened: as §1

[13] = Postemergence, 31 g ai/ha, scale 0 to 100 (0 no effect, 100 complete control)
[14] = Postemergence, 125 g ai/ha, visual rating on scale 0 (no effect) to 100 (complete control), 14 to 21 d
[15] = Postemergence, 250 g ai/ha, scale 0 to 100 (0 no effect, 100 complete control)
[16] = Preemergence, 125 g ai/ha, scale 0 to 100 (0 no effect, 100 complete control)
[17] = Preemergence, 250 g ai/ha, scale 0 to 100 (0 no effect, 100 complete control)
[18] = postemergence, 62 g ai/ha, scale 0 to 100, 0 no effect, 100 complete control

C#CCOC(=O)Oc1c(C)nn(C)c(=O)c1-c1c(C)sc2ccc(C)cc12 [Compound 87]
10: Deadnettle plant response rating [5, 13] | Plant response rating (scale of 0 to 100), Foxtail, Green ([7]; Preemergence, 31 g ai/ha) | Plant response rating, Wheat, Spring [10, 15]
98: Plant response rating, Ryegrass, Italian [9, 15] | Plant response rating, Ryegrass, Italian [9, 16] | Plant response rating, Ryegrass, Italian [9, 17]
0: Plant response rating (scale of 0 to 100), Kochia (kochia (Kochia scoparia); Preemergence, 31 g ai/ha) | Wheat, Spring plant response rating [10, 13] | Plant response rating (scale of 0 to 100), Wheat, Spring ([10]; Preemergence, 31 g ai/ha) | Plant response rating (scale of 0 to 100), Wheat, Spring ([10]; Preemergence, 62 g ai/ha) | Plant response rating, Wheat, Spring [10, 18] | Wheat, Winter plant response rating [11, 13] | Plant response rating, Wheat, Winter [11, 14] | Plant response rating (scale of 0 to 100), Wheat, Winter ([11]; Preemergence, 31 g ai/ha) | Plant response rating (scale of 0 to 100), Wheat, Winter ([11]; Preemergence, 62 g ai/ha) | Plant response rating, Wheat, Winter [11, 16] | Plant response rating, Wheat, Winter [11, 18]
35: Plant response rating, Deadnettle [5, 14] | Plant response rating (scale of 0 to 100), Deadnettle ([5]; Preemergence, 62 g ai/ha)
55: Canarygrass plant response rating [3, 13] | Plant response rating (scale of 0 to 100), Foxtail, Green ([7]; Preemergence, 62 g ai/ha) | Plant response rating (scale of 0 to 100), Kochia (kochia (Kochia scoparia); Preemergence, 62 g ai/ha)
90: Plant response rating, Blackgrass [2, 15] | Plant response rating, Canarygrass [3, 15] | Plant response rating (scale of 0 to 100), Canarygrass ([3]; Preemergence, 62 g ai/ha) | Plant response rating, Canarygrass [3, 16] | Plant response rating, Chickweed [4, 18] | Plant response rating, Foxtail, Green [7, 15] | Plant response rating, Kochia (kochia (Kochia scoparia); [14]) | Plant response rating, Kochia (kochia (Kochia scoparia); [18]) | Ryegrass, Italian plant response rating [9, 13] | Plant response rating (scale of 0 to 100), Ryegrass, Italian ([9]; Preemergence, 31 g ai/ha)
15: Plant response rating (scale of 0 to 100), Russian Thistle ([1]; Preemergence, 62 g ai/ha) | Plant response rating, Deadnettle [5, 18] | Plant response rating, Wheat, Spring [10, 16] | Plant response rating, Wheat, Winter [11, 17]
60: Russian Thistle plant response rating [1, 13] | Plant response rating, Deadnettle [5, 15]
5: Plant response rating (scale of 0 to 100), Russian Thistle ([1]; Preemergence, 31 g ai/ha) | Plant response rating, Wheat, Spring [10, 14] | Plant response rating, Wheat, Winter [11, 15]
95: Plant response rating, Canarygrass [3, 17] | Plant response rating, Field Violet [6, 16] | Plant response rating, Foxtail, Green [7, 16] | Plant response rating, Foxtail, Green [7, 17] | Plant response rating, Kochia (kochia (Kochia scoparia); [15]) | Lambsquarters plant response rating [8, 13] | Plant response rating, Ryegrass, Italian [9, 14] | Plant response rating (scale of 0 to 100), Ryegrass, Italian ([9]; Preemergence, 62 g ai/ha) | Plant response rating, Ryegrass, Italian [9, 18]
20: Plant response rating, Wheat, Spring [10, 17]
25: Plant response rating (scale of 0 to 100), Deadnettle ([5]; Preemergence, 31 g ai/ha)
65: Plant response rating, Russian Thistle [1, 14] | Plant response rating, Russian Thistle [1, 18] | Blackgrass plant response rating [2, 13] | Plant response rating, Deadnettle [5, 16]
100: Plant response rating, Russian Thistle [1, 17] | Plant response rating, Chickweed [4, 14] | Plant response rating, Chickweed [4, 15] | Plant response rating (scale of 0 to 100), Chickweed ([4]; Preemergence, 31 g ai/ha) | Plant response rating (scale of 0 to 100), Chickweed ([4]; Preemergence, 62 g ai/ha) | Plant response rating, Chickweed [4, 16] | Plant response rating, Chickweed [4, 17] | Plant response rating, Field Violet [6, 14] | Plant response rating, Field Violet [6, 15] | Plant response rating, Field Violet [6, 17] | Plant response rating, Kochia (kochia (Kochia scoparia); [16]) | Plant response rating, Kochia (kochia (Kochia scoparia); [17]) | Plant response rating, Lambsquarters [8, 14] | Plant response rating, Lambsquarters [8, 15] | Plant response rating (scale of 0 to 100), Lambsquarters ([8]; Preemergence, 62 g ai/ha) | Plant response rating, Lambsquarters [8, 16] | Plant response rating, Lambsquarters [8, 17] | Plant response rating, Lambsquarters [8, 18] | Plant response rating, Windgrass [12, 15] | Plant response rating, Windgrass [12, 17]
75: Plant response rating, Russian Thistle [1, 15] | Plant response rating, Blackgrass ([2]; Preemergence, 62 g ai/ha, scale 0 to 100 (0 no effect, 100 complete control)) | Plant response rating, Blackgrass [2, 18] | Plant response rating, Foxtail, Green [7, 18]
70: Plant response rating (scale of 0 to 100), Blackgrass ([2]; Preemergence, 31 g ai/ha) | Plant response rating, Deadnettle [5, 17] | Foxtail, Green plant response rating [7, 13] | Plant response rating (scale of 0 to 100), Lambsquarters ([8]; Preemergence, 31 g ai/ha)
85: Plant response rating, Russian Thistle [1, 16] | Plant response rating, Blackgrass [2, 14] | Plant response rating, Canarygrass [3, 14] | Plant response rating (scale of 0 to 100), Canarygrass ([3]; Preemergence, 31 g ai/ha) | Chickweed plant response rating [4, 13] | Plant response rating (scale of 0 to 100), Field Violet ([6]; Preemergence, 62 g ai/ha) | Plant response rating, Field Violet [6, 18] | Kochia plant response rating (kochia (Kochia scoparia); [13]) | Plant response rating, Windgrass [12, 14] | Plant response rating, Windgrass [12, 16] | Plant response rating, Windgrass [12, 18]
80: Plant response rating, Blackgrass [2, 16] | Plant response rating, Blackgrass [2, 17] | Plant response rating, Canarygrass [3, 18] | Field Violet plant response rating [6, 13] | Plant response rating (scale of 0 to 100), Field Violet ([6]; Preemergence, 31 g ai/ha) | Plant response rating, Foxtail, Green [7, 14] | Windgrass plant response rating [12, 13] | Plant response rating (scale of 0 to 100), Windgrass ([12]; Preemergence, 31 g ai/ha) | Plant response rating (scale of 0 to 100), Windgrass ([12]; Preemergence, 62 g ai/ha)
